Measurements published in patent US9765381B2, “Mutated genes for the catalytic protein of oplophorus luciferase and use thereof” (JNC Corporation, priority 2013, dated 2017).

Tests used:
[1] = Substrate specificities for amino-terminal deleted nanoKAZ; format: biochemical; conditions: for luminescence activity higher than that of coelenterazine: as luminescence substrate of the luciferase mutant, general description; for Relative luminescence activity (Imax) 6h-f-CTZ: substrate 6h-f-coelenterazine; for Relative luminescence activity (Imax) 6h-f-CTZ / Relative luminescence activity (Imax) bis-CTZ / Relative luminescence activity (Imax) f-CTZ / Relative luminescence activity (Imax) h-CTZ: relative to nanoKAZ with CTZ; for Relative luminescence activity (Imax) bis-CTZ: substrate bis-coelenterazine; for Relative luminescence activity (Imax) CTZ: substrate coelenterazine (CTZ), culture medium of CHO-K1, pcDNA3 vectors, nanoKAZ with CTZ = 1.00; for Relative luminescence activity (Imax) f-CTZ: substrate f-coelenterazine; for Relative luminescence activity (Imax) h-CTZ: substrate h-coelenterazine
Protocol: The enzyme solutions of amino-terminal deleted nanoKAZ used for substrate specificity studies were prepared by the method described in EXAMPLE 12, using pcDNA3 vectors (pcDNA3-ΔN2T-nKAZ, pcDNA3-ΔN3L-nKAZ, pcDNA3-ΔN4E-nKAZ, pcDNA3-ΔN5D-nKAZ and pcDNA3-ΔN6F-nKAZ) for expression of the amino-terminal deletions, which were obtained by the method described in EXAMPLE 11. After transfection to CHO-K1 cells and then incubation for 48 hours, the culture medium were collected and stored in a frozen state. The coelenterazine analogues used for substrate specificity studies were synthesized by the methods described in publications, respectively. Specifically, coelenterazine (CTZ), h-coelenterazine (h-CTZ) and f-coelenterazine (f-CTZ), 6h-f-coelenterazine (6h-f-CTZ) were synthesized by the method described in Inouye et al (2013) Biochem. Biophys. Res. Commun. 437: 23-28, and bis-coelenterazine (bis-CTZ) was synthesized by the method described in Nakamura et al, (1997) Tetrahedron Lett. 38: 6405-6406.
A luminescence reaction was started by the addition of 2 μL of the freeze-thawed culture medium on ice to 100 μL of TE containing 1 μg of coelenterazine or its analogue. The luminescence activities were measured for 10 seconds using a luminometer (manufactured by Atto Inc.: AB2200), and the maximum intensity of luminescence (Imax) of nanoKAZ was shown as a relative luminescence activity using coelenterazine as a substrate.

[2] = tested on: pcDNA3-GLsp-nanoKAZ/CHO-K1 stable expressed cell line; assay: Secretory inhibition by brefeldin A, nanoKAZ with secretory signal peptide sequence; format: cell-based, Chinese hamster; conditions: brefeldin A 5 μg/mL, 0-6 hours, compared to absence of brefeldin A, FIG. 3
Protocol: (§1) Using the stable expressed cell lines established in EXAMPLE 14 and EXAMPLE 15, the effect of brefeldin A that inhibits exocytosis through the trans-Golgi network by the vesicle-mediated transport was compared. Specifically, each stable expressed cell lines with 2×10^5 cells were seeded to a 6-well plate in 3 mL of Ham's F-12 medium containing 10% FBS, respectively; followed by incubation at 37° C. in a 5% CO2 incubator for 48 hours. After washing twice with 3 mL of Ham's F-12 medium containing 10% FBS, brefeldin A (manufactured by Wako Pure Chemical Industries, Ltd.) was added to the culture medium at a final concentration of 5 μg/mL. As a control experiment, cells were cultured in the absence of brefeldin A. The luminescence activity in the culture medium was determined at each incubation times at 0, 1, 3 and 6 hours, using coelenterazine as a substrate.

[3] = tested on: pcDNA3-nanoKAZ/CHO-K1 stable expressed cell line; assay: Secretory inhibition by brefeldin A, nanoKAZ without secretory signal peptide sequence; format: cell-based, Chinese hamster; conditions: brefeldin A 5 μg/mL, 0-6 hours, FIG. 4
Protocol: as §1

[4] = Luminescence activity of amino-terminal deleted nanoKAZ and ZZ-fused amino-terminal deleted nanoKAZ in crude enzyme solution; format: biochemical; conditions: expressed in E. coli BL21, crude enzyme solution, coelenterazine substrate, nanoKAZ = 100; for Relative luminescence activity (%, Imax) pCold-ZZ-P-: ZZ-fused (pCold-ZZ-P- vector); for Relative luminescence activity (%, Imax) pCold-: pCold- vector
Protocol: In order to express the amino-terminal deleted nanoKAZ in E. coli, the recombinant plasmid obtained in EXAMPLE 4 was used. The E. coli BL21 strain (Novagen, Madison, Wis.) was used as a host cell. The BL21 strain carrying the recombinant plasmid was incubated in 5 mL of Luria-Bertani medium (hereinafter designated as LB medium) containing ampicillin (50 μg/mL) at 37° C. for 18 hours. The seed culture of 0.1 mL was inoculated to 10 mL of LB medium and incubated for 3 hours, followed by cooling in an ice-water bath for 1 hour. IPTG was added to the culture medium at a final concentration of 0.1 mM, followed by incubation at 15° C. for further 17 hours. After completion of the incubation, 1 mL of the culture medium was collected by centrifugation at 10,000 rpm for 2 minutes. The collected E. coli cells were suspended in 0.5 mL of 30 mM Tris-HCl (pH 7.6)-10 mM EDTA (manufactured by Wako Pure Chemical Industries, Ltd.) (hereinafter designated as TE). The E. coli cells were disrupted by sonication for 3 seconds using a Branson model 250 sonifire (Danbury, Conn.) to give a crude enzyme solution. Then, 5 μL of the crude enzyme solution was analyzed by SDS-PAGE to confirm the protein expression (FIG. 1).
To express the ZZ-fused amino-terminal deleted nanoKAZ in E. coli, the recombinant plasmid obtained in EXAMPLE 6 was used. Crude enzyme solutions were prepared using a similar manner to EXAMPLE 5 using the E. coli BL21 strain (Novagen, Madison, Wis.) as a host cell. Then, 5 μL of the crude enzyme solution obtained was subjected to SDS-PAGE analysis to confirm the protein expression (FIG. 2).
The crude enzyme solutions obtained in EXAMPLE 5 and EXAMPLE 7 were allowed to stand in an ice-water for over 1 hour and then diluted to 50-fold in TE. By addition of 1 μL each of the crude enzyme solutions to 100 μL of TE containing 1 μg of coelenterazine (manufactured by JNC Corp.), a luminescence reaction was started. The luminescence activity was measured for 60 seconds using a luminometer (manufactured by Atto AB2200); the maximum intensity of luminescence (Imax) is given as a percentage (%).

[5] = tested on: CHO-K1 cells; assay: Luminescence activity of amino-terminal deleted nanoKAZ expressed in animal cultured cells (culture medium and cell extracts); format: cell-based, Chinese hamster; conditions: coelenterazine; for Relative luminescence activity (%, Imax) pcDNA3- Cell extracts / Relative luminescence activity (%, Imax) pcDNA3- Culture medium: lacking secretory signal peptide; for Relative luminescence activity (%, Imax) pcDNA3- Cell extracts / Relative luminescence activity (%, Imax) pcDNA3-GLsp- Cell extracts: CHO-K1, cell extracts; for Relative luminescence activity (%, Imax) pcDNA3- Culture medium / Relative luminescence activity (%, Imax) pcDNA3-GLsp- Culture medium: CHO-K1, culture medium; for Relative luminescence activity (%, Imax) pcDNA3-GLsp- Cell extracts / Relative luminescence activity (%, Imax) pcDNA3-GLsp- Culture medium: with Gaussia luciferase secretory signal peptide
Protocol: Chinese hamster ovary cell line CHO-K1 was cultured in Ha F-12 medium (manufactured by Wako Pure Chemical Industries, Ltd.) supplemented with 10% (v/v) fetal bovine serum (manufactured by Biowest Inc.) (hereinafter sometimes referred to as Ham's F-12 medium). The CHO-K1 cells were seeded in a 6-well plate in 1×10^5 cells/well/2 mL medium (n=2) and cultured in an incubator at 37° C. in 5% (v/v) CO2. After 24 hours, the purified recombinant plasmid was transfected to CHO-K1 cells using a FuGene HD transfection kit (manufactured by Promega Corp.) and the cells were provided for subsequent experiment. Specifically, 1 μg of the recombinant plasmid, 0.1 μg of the internal standard vector pGL4.13 [Luc2/sv40] and 3 μL of FuGene HD were added to 100 μL of the medium and allowed to stand at room temperature for 15 minutes. Subsequently, 100 μL, of the DNA-FuGene complex was added to the cells in the 6-well plate. After incubation for 44 hours, the culture medium was collected. On the other hand, the cells expressed the KAZ mutants were washed 3 times with 3 mL of 1×PBS, then suspended in 1 mL of 1×PBS and disrupted by sonication on ice. The resultant cell extracts of nanoKAZ deletion mutants was used as enzyme solutions.
Culture media containing the secreted amino-terminal deleted nanoKAZ and cell extracts of amino-terminal deleted nanoKAZ as the enzyme solutions were prepared in the same manner as in EXAMPLE 10.
After adding of 5 μL each of the culture media and cell extracts obtained in EXAMPLE 10 and EXAMPLE 12, respectively, to 100 μL of TE containing 1 μg of coelenterazine (manufactured by JNC Corp.), a luminescence reaction was started. The luminescence activity was measured for 60 seconds using a luminometer (manufactured by Atto Inc.: AB2200), and the maximum intensity of luminescence (Imax) was given as a percentage (%).

Molecule	Relative luminescence activity (%, Imax) pCold-ZZ-P- [4] [%]	Relative luminescence activity (%, Imax) pCold- [4] [%]	luminescence activity higher than that of coelenterazine [1]	secretion of nanoKAZ into the culture medium in the presence of brefeldin A [2]	secretion of nanoKAZ into the culture medium in the presence of brefeldin A [3]	Relative luminescence activity (%, Imax) pcDNA3- Cell extracts [5] [%]	Relative luminescence activity (%, Imax) pcDNA3- Culture medium [5] [%]	Relative luminescence activity (%, Imax) pcDNA3-GLsp- Cell extracts [5] [%]	Relative luminescence activity (%, Imax) pcDNA3-GLsp- Culture medium [5] [%]	Relative luminescence activity (Imax) 6h-f-CTZ [1]	Relative luminescence activity (Imax) bis-CTZ [1]	Relative luminescence activity (Imax) CTZ [1]	Relative luminescence activity (Imax) f-CTZ [1]	Relative luminescence activity (Imax) h-CTZ [1]	activity compared with nanoKAZ (in words) ([1]; substrates bis-CTZ, 6h-f-CTZ, h-CTZ and f-CTZ)
O=c1c(Cc2ccc(F)cc2)nc2c(Cc3ccccc3)[nH]c(-c3ccccc3)cn1-2 [6h-f-coelenterazine, reference compound]	–	–	approximately 10 times	–	–	–	–	–	–	–	–	–	–	–	–
C[C@H]1CCC/C=C/[C@@H]2C[C@H](O)C[C@H]2[C@H](O)/C=C/C(=O)O1 [brefeldin A]	–	–	–	markedly inhibited	secreted	–	–	–	–	–	–	–	–	–	–
O=c1c(Cc2ccc(F)cc2)nc2c(Cc3ccccc3)[nH]c(-c3ccc(O)cc3)cn1-2 [f-CTZ, f-coelenterazine, reference compound]	–	–	10 times	–	–	–	–	–	–	–	–	–	–	–	–
Oc1ccc(-c2cn3c(O)c(Cc4ccccc4)nc3c(Cc3ccccc3)n2)cc1 [h-CTZ, h-coelenterazine, reference compound]	–	–	10 times	–	–	–	–	–	–	–	–	–	–	–	–
bis-coelenterazine [reference compound]	–	–	approximately 10 times	–	–	–	–	–	–	–	–	–	–	–	–

Continued, in another order:

Relative luminescence activity (%, Imax) pCold-ZZ-P- [4] [%]	Relative luminescence activity (%, Imax) pCold- [4] [%]	Molecule	luminescence activity higher than that of coelenterazine [1]	secretion of nanoKAZ into the culture medium in the presence of brefeldin A [2]	secretion of nanoKAZ into the culture medium in the presence of brefeldin A [3]	Relative luminescence activity (%, Imax) pcDNA3- Cell extracts [5] [%]	Relative luminescence activity (%, Imax) pcDNA3- Culture medium [5] [%]	Relative luminescence activity (%, Imax) pcDNA3-GLsp- Cell extracts [5] [%]	Relative luminescence activity (%, Imax) pcDNA3-GLsp- Culture medium [5] [%]	Relative luminescence activity (Imax) 6h-f-CTZ [1]	Relative luminescence activity (Imax) bis-CTZ [1]	Relative luminescence activity (Imax) CTZ [1]	Relative luminescence activity (Imax) f-CTZ [1]	Relative luminescence activity (Imax) h-CTZ [1]	activity compared with nanoKAZ (in words) ([1]; substrates bis-CTZ, 6h-f-CTZ, h-CTZ and f-CTZ)
100	100	nanoKAZ: mutated 19 kDa catalytic protein of Oplophorus luciferase with 16 mutations, amino acid sequence SEQ ID NO: 2 [reference compound]	–	–	–	29.4	100	4.8	100	7.00	6.93	1.00	12.65	11.76	–
93.4	–	ΔN2T-nKAZ: nanoKAZ (SEQ ID NO: 2) with deletion of the phenylalanine residue at the first amino acid; SEQ ID NO: 4	–	–	–	23.3	93.4	3.4	97.0	8.02	8.99	1.03	15.04	13.38	higher activity than nanoKAZ
82.0	–	ΔN3L-nKAZ: nanoKAZ with 2 amino-terminal amino acids deleted; SEQ ID NO: 6	–	–	–	16.2	50.6	4.4	87.7	5.25	5.39	0.50	9.88	9.39	–
74.0	–	ΔN4E-nKAZ: nanoKAZ with 3 amino-terminal amino acids deleted; SEQ ID NO: 8	–	–	–	9.7	4.6	2.9	60.5	0.36	0.35	0.05	0.70	0.58	–
73.6	87.0	ΔN5D-nKAZ: nanoKAZ with 4 amino-terminal amino acids deleted; SEQ ID NO: 10	–	–	–	1.5	0.1	1.7	56.2	0.01	0.01	0.01	0.02	0.01	–
